Common to all, as to type: functional
One assay deals with Candida albicans. Put plainly: Antifungal activity against Candida albicans after 48 hrs by serial plate dilution method.
Another assay has as its system Staphylococcus aureus. The assay can be described thus: Antibacterial activity against Staphylococcus aureus after 24 hrs by broth dilution technique.
The next assay deals with Bacillus subtilis. The assay can be described thus: Antibacterial activity against Bacillus subtilis after 24 hrs by broth dilution technique. Background: Broth dilution looks for growth in wells or tubes with falling amounts of substance.
The subject of the next assay is Aspergillus niger. Put plainly: Antifungal activity against Aspergillus niger after 48 hrs by serial plate dilution method.
The subject of the next assay is Pseudomonas fluorescens. The assay can be described thus: Antibacterial activity against Pseudomonas fluorescens after 24 hrs by broth dilution technique.
The test system of a further assay is Trichophyton rubrum. Put plainly: Antifungal activity against Trichophyton rubrum after 48 hrs by serial plate dilution method.

Values after ≈ are worked out from the molar mass of the structure shown.

The values below come from ChEMBL document CHEMBL1149775, “Synthesis, characterization and biological activity of Schiff base analogues of indole-3-carboxaldehyde” (2008).

What is called MIC is the least concentration at which growth counts as inhibited. Higher therefore signals a need for much substance.

On to `O=C(O)C(Cc1c[nH]cn1)/N=C/c1c[nH]c2ccccc12` (configuration not stated), for which the MIC in the assay with Candida albicans was > 50 µg/mL; with Staphylococcus aureus it was 3.4 µg/mL (≈ 12 µM); against Bacillus subtilis it was 35.1 µg/mL (≈ 124 µM); against Aspergillus niger it was 47.5 µg/mL (≈ 168 µM); against Pseudomonas fluorescens, 3.8 µg/mL (≈ 13.5 µM); against Trichophyton rubrum, > 50 µg/mL.

`O=S(=O)(O)c1cc(O)c(/N=C/c2c[nH]c3ccccc23)c2ccccc12`: the MIC in the assay on Candida albicans was 15.2 µg/mL (≈ 41.5 µM); against Staphylococcus aureus it was > 50 µg/mL; against Bacillus subtilis, 15.5 µg/mL (≈ 42.3 µM); in the assay on Aspergillus niger, 21.3 µg/mL (≈ 58.1 µM); against Pseudomonas fluorescens, 21.6 µg/mL (≈ 59 µM); against Trichophyton rubrum, 21.9 µg/mL (≈ 59.8 µM).

As to `O=C(O)CC(/N=C/c1c[nH]c2ccccc12)C(=O)O` (configuration not stated), the MIC against Candida albicans is 11.9 µg/mL (≈ 45.7 µM); in the assay on Staphylococcus aureus, 18.5 µg/mL (≈ 71.1 µM); against Bacillus subtilis, 11.3 µg/mL (≈ 43.4 µM); against Aspergillus niger it was 17.8 µg/mL (≈ 68.4 µM); in the assay with Pseudomonas fluorescens it was 19.3 µg/mL (≈ 74.2 µM); against Trichophyton rubrum it was 16.2 µg/mL (≈ 62.2 µM).

For `Oc1ccccc1/N=C/c1c[nH]c2ccccc12`, the minimum inhibitory concentration (MIC) with Candida albicans was 28.4 µg/mL (≈ 120 µM); against Staphylococcus aureus, 35.9 µg/mL (≈ 152 µM); in the assay on Bacillus subtilis, 18.4 µg/mL (≈ 77.9 µM); against Aspergillus niger, > 50 µg/mL; against Pseudomonas fluorescens it was 15.8 µg/mL (≈ 66.9 µM); against Trichophyton rubrum it was > 50 µg/mL.

For `CC(C)C(/N=C/c1c[nH]c2ccccc12)C(=O)O` (configuration not stated), the MIC is 26.8 µg/mL (≈ 110 µM) against Candida albicans; 16.8 µg/mL (≈ 68.8 µM) against Staphylococcus aureus; 42.5 µg/mL (≈ 174 µM) in the assay with Bacillus subtilis; > 50 µg/mL in the assay with Aspergillus niger; 38.1 µg/mL (≈ 156 µM) in the assay with Pseudomonas fluorescens; > 50 µg/mL in the assay on Trichophyton rubrum.

As to `O=C(O)CCC(/N=C/c1c[nH]c2ccccc12)C(=O)O` (configuration not stated), the minimal inhibitory concentration (MIC) with Candida albicans was 12.5 µg/mL (≈ 45.6 µM); in the assay with Staphylococcus aureus it was 19.2 µg/mL (≈ 70 µM); against Bacillus subtilis, 48.2 µg/mL (≈ 176 µM); against Aspergillus niger, > 50 µg/mL; against Pseudomonas fluorescens it was 5.7 µg/mL (≈ 20.8 µM); in the assay on Trichophyton rubrum it was > 50 µg/mL.

Turning to `CC(C)CC(/N=C/c1c[nH]c2ccccc12)C(=O)O` (configuration not stated), the MIC is 19.9 µg/mL (≈ 77 µM) in the assay on Candida albicans; 35.3 µg/mL (≈ 137 µM) against Staphylococcus aureus; 12.1 µg/mL (≈ 46.8 µM) in the assay on Bacillus subtilis; > 50 µg/mL with Aspergillus niger; > 50 µg/mL in the assay on Pseudomonas fluorescens; > 50 µg/mL in the assay with Trichophyton rubrum.
